From paper PMC10046369, “Low-Affinity/High-Selectivity Dopamine Transport Inhibition Sufficient to Rescue Cognitive Functions in the Aging Rat” (Biomolecules, 2023)

Assays:
Assay in all cases: biochemical
Set-up in all cases: KINOMEscan competition binding panel, per cent of control
Conditions in all cases: read-out: %Ctrl @ 2800nM
[1] = molecular target: FLT3(N841I) (Homo sapiens, UniProt P36888, N841I)
Method in brief: (§1)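 Values are expressed as percent of control, calculated as ((test − positive control)/(negative control − positive control)) × 100, so lower numbers mean stronger hits. Binding was measured by KINOMEscan competition assay in a 450-kinase human panel including disease mutants, using the contractor's validated protocol.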

[2] = molecular target: CAMK1G (Homo sapiens, UniProt Q96NX5)
Method in brief: as §1

[3] = molecular target: T1, p38-beta (Homo sapiens, UniProt Q15759)
T1 construct: gene MAPK11
Method in brief: as §1

[4] = molecular target: DYRK1A (Homo sapiens, UniProt Q13627)
Method in brief: as §1

[5] = molecular target: HIPK3 (Homo sapiens, UniProt Q9H422)
Method in brief: as §1

[6] = molecular target: ITK (Homo sapiens, UniProt Q08881)
Method in brief: as §1

[7] = molecular target: EPHB1 (Homo sapiens, UniProt P54762)
Method in brief: as §1

[8] = molecular target: T2, CDK4-cyclinD3 (Homo sapiens, UniProt P11802)
T2 construct: cyclinD3
Method in brief: as §1

[9] = molecular target: T3, QSK (Homo sapiens, UniProt Q9Y2K2)
T3 construct: gene SIK3
Method in brief: as §1

[10] = molecular target: PRKCE (Homo sapiens, UniProt Q02156)
Method in brief: as §1

[11] = molecular target: DAPK2 (Homo sapiens, UniProt Q9UIK4)
Method in brief: as §1

[12] = molecular target: KIT(V559D) (Homo sapiens, UniProt P10721, V559D)
Method in brief: as §1

[13] = molecular target: PIM1 (Homo sapiens, UniProt P11309)
Method in brief: as §1

[14] = molecular target: AKT2 (Homo sapiens, UniProt P31751)
Method in brief: as §1

[15] = molecular target: T4, PIP5K2C (Homo sapiens, UniProt Q8TBX8)
T4 construct: gene PIP4K2C
Method in brief: as §1

[16] = molecular target: HIPK1 (Homo sapiens, UniProt Q86Z02)
Method in brief: as §1

[17] = molecular target: T5, IKK-alpha (Homo sapiens, UniProt O15111)
T5 construct: gene CHUK
Method in brief: as §1

[18] = molecular target: BMX (Homo sapiens, UniProt P51813)
Method in brief: as §1

[19] = molecular target: CDKL3 (Homo sapiens, UniProt Q8IVW4)
Method in brief: as §1

[20] = molecular target: TESK1 (Homo sapiens, UniProt Q15569)
Method in brief: as §1

[21] = molecular target: CLK3 (Homo sapiens, UniProt P49761)
Method in brief: as §1

[22] = molecular target: T6, CTK (Homo sapiens, UniProt P42679)
T6 construct: gene MATK
Method in brief: as §1

[23] = molecular target: MAP4K4 (Homo sapiens, UniProt O95819)
Method in brief: as §1

[24] = molecular target: T7, RIPK5 (Homo sapiens, UniProt Q6XUX3)
T7 construct: gene DSTYK
Method in brief: as §1

[25] = molecular target: T8, CDC2L5 (Homo sapiens, UniProt Q14004)
T8 construct: gene CDK13
Method in brief: as §1

[26] = molecular target: PIK3CA(I800L) (Homo sapiens, UniProt P42336, I800L)
Method in brief: as §1

Sequence of DAPK2 (Q9UIK4 whole entry): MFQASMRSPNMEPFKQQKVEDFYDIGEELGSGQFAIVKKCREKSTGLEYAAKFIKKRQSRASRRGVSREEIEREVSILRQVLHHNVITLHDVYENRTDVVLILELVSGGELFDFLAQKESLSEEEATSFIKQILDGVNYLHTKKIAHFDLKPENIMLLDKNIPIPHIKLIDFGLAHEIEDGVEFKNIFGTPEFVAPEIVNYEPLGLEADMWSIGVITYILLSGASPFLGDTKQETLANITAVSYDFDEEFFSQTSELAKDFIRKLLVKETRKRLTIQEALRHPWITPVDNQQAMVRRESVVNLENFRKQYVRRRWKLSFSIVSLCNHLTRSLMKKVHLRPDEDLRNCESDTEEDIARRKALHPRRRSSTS
Sequence of CDKL3 (Q8IVW4 whole entry): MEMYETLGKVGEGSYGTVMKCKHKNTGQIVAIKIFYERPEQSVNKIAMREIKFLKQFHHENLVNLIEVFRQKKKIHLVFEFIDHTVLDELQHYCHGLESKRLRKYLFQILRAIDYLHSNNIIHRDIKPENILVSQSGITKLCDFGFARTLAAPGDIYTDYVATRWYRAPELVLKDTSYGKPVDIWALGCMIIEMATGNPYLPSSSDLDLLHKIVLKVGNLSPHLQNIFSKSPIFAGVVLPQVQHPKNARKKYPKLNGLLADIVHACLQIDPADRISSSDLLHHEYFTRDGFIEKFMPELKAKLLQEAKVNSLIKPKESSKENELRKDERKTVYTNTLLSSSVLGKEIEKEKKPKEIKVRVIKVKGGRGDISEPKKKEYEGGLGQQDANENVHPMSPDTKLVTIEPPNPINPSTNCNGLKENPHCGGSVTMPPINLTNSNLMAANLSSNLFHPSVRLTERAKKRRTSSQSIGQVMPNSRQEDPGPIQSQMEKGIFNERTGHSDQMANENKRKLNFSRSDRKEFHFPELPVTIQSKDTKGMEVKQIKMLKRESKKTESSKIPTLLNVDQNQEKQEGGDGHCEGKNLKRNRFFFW
Sequence of PRKCE (Q02156 whole entry): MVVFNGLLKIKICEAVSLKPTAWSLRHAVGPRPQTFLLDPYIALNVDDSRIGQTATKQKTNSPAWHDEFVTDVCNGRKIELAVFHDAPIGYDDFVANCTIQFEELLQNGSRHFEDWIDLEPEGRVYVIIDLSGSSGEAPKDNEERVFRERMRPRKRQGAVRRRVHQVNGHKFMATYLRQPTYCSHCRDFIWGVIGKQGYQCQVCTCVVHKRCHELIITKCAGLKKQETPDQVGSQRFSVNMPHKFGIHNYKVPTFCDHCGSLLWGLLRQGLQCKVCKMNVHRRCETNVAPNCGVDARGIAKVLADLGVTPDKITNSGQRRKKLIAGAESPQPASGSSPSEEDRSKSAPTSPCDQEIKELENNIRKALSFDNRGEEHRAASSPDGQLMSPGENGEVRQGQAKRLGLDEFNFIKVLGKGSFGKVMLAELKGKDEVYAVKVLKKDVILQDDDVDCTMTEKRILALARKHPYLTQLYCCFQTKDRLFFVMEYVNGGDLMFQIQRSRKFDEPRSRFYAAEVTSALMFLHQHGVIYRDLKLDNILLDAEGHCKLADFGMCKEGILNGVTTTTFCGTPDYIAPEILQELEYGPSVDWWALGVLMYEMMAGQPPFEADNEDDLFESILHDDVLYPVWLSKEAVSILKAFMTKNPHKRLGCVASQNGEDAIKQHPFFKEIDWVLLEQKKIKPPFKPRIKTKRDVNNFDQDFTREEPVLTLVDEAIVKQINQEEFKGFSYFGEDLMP
Sequence of HIPK1 (Q86Z02 whole entry): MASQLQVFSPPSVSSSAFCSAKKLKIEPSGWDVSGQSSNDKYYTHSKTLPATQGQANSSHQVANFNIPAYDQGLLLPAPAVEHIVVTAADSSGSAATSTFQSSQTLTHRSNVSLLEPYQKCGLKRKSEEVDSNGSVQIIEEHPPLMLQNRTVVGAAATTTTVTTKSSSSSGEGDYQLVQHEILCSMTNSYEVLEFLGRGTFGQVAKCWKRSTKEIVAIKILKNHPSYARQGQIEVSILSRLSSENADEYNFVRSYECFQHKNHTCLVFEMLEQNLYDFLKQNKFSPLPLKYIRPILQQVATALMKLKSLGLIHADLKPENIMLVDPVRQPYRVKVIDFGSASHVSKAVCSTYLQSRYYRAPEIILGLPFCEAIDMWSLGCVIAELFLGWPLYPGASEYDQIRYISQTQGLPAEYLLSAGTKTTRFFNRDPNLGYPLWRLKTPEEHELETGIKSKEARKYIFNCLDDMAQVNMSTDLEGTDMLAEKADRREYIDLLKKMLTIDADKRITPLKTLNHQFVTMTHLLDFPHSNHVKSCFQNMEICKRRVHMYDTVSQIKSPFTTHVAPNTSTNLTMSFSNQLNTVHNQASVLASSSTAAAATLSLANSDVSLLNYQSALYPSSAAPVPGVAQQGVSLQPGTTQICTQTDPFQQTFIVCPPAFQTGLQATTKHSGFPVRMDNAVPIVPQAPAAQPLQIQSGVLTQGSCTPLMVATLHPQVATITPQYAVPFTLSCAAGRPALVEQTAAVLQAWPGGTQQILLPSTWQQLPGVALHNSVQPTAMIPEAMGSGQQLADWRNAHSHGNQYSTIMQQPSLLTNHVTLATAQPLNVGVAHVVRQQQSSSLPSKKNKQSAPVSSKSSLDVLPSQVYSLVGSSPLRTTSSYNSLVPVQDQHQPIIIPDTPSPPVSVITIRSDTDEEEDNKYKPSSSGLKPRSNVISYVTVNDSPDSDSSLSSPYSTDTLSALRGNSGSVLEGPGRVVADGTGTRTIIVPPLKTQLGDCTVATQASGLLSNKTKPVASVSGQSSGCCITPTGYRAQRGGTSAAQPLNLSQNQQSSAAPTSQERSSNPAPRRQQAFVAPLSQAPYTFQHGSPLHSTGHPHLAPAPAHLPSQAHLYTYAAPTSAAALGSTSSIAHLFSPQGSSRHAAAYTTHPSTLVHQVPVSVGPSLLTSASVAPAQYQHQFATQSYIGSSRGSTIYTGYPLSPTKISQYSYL
Sequence of CLK3 (P49761 whole entry): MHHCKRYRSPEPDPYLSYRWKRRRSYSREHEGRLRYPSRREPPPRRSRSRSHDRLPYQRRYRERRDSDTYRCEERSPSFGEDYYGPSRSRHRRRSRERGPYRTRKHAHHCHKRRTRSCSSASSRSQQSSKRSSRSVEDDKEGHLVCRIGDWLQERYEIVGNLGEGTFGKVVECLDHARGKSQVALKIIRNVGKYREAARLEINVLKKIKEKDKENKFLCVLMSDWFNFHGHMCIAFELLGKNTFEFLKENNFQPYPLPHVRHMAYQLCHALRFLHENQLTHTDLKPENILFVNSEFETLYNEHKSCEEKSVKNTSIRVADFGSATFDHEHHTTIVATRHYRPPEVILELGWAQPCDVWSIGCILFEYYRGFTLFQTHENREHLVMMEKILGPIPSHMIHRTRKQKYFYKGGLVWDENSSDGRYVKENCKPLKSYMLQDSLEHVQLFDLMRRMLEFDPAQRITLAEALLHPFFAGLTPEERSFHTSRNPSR
T8 sequence (Q14004 whole entry): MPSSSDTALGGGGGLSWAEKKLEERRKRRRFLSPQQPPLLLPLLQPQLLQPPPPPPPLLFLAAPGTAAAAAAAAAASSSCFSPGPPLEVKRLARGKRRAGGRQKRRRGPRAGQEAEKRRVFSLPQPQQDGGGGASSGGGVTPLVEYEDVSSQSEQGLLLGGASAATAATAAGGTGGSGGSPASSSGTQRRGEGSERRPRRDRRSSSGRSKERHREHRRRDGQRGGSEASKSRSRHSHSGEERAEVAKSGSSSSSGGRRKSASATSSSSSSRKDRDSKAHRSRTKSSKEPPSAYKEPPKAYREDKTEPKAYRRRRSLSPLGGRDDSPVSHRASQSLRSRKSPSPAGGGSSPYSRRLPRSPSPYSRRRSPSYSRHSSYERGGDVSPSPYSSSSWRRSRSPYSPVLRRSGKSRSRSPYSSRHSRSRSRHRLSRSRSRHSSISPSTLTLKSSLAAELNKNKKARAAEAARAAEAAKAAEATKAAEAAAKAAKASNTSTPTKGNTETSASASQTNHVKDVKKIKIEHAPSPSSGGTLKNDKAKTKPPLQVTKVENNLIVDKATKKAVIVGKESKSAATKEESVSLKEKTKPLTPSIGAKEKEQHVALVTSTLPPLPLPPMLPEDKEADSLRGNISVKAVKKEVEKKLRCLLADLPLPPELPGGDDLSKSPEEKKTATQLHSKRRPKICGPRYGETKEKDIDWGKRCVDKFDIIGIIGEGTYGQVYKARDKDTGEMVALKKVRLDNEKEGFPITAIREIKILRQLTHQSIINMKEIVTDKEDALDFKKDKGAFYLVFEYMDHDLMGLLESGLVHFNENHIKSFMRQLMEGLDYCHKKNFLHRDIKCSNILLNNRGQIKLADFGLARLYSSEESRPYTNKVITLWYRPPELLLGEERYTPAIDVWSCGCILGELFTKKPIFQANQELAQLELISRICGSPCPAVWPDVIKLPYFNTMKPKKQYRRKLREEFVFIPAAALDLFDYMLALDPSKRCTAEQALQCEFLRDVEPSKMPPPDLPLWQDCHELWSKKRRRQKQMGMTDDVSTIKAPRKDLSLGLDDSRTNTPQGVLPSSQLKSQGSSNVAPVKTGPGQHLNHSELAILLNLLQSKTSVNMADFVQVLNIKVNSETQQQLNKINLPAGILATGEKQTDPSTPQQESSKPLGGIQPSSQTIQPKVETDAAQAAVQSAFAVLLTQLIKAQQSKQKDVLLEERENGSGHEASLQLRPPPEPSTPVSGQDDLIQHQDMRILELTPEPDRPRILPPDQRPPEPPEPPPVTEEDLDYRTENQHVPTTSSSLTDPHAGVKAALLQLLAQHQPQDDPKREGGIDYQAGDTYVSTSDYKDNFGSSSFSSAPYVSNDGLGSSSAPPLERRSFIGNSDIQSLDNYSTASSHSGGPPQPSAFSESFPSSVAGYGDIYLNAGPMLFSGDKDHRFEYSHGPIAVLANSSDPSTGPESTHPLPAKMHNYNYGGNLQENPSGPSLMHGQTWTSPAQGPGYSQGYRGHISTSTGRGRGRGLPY

[O-][S@@+](Cc1cncs1)C(c1ccccc1)c1ccccc1 [S-CE-123, (S)-5-((Benzhydrylsulfinyl)Methyl)Thiazole]
remaining binding at 2.8 µM [1]: 91%
remaining binding at 2.8 µM [2]: 82%
remaining binding at 2.8 µM [3]: 94%
remaining binding at 2.8 µM [4]: 96%
remaining binding at 2.8 µM [5]: 91%
remaining binding at 2.8 µM [6]: 100%
remaining binding at 2.8 µM [7]: 100%
remaining binding at 2.8 µM [8]: 85%
remaining binding at 2.8 µM [9]: 93%
remaining binding at 2.8 µM [10]: 100%
remaining binding at 2.8 µM [11]: 96%
remaining binding at 2.8 µM [12]: 97%
remaining binding at 2.8 µM [13]: 100%
remaining binding at 2.8 µM [14]: 87%
remaining binding at 2.8 µM [15]: 100%
remaining binding at 2.8 µM [16]: 90%
remaining binding at 2.8 µM [17]: 100%
remaining binding at 2.8 µM [18]: 57%
remaining binding at 2.8 µM [19]: 81%
remaining binding at 2.8 µM [20]: 96%
remaining binding at 2.8 µM [21]: 95%
remaining binding at 2.8 µM [22]: 51%
remaining binding at 2.8 µM [23]: 100%
remaining binding at 2.8 µM [24]: 95%
remaining binding at 2.8 µM [25]: 98%
remaining binding at 2.8 µM [26]: 84%
